Data on one compound can be found in paper PMC12593154, “Overcoming Solubility Challenges: Micronization of Berberine Using the GAS Antisolvent Technique” (ACS Omega, 2025).

As a reminder, the solubility is how much of the substance goes into solution per volume.

Structures are written as SMILES.

Data set [1] in a line: Solubility analysis of berberine in organic solvents (excess compound, 24 h agitation, spectrophotometer). As to conditions: organic solvent or mixture, thermodynamic from solid. Format: physicochemical. The method, then:
The solubility study of the compound in different solvents was carried out. Acetone, ethanol, methanol, 1-propanol, 1-butanol, and dichloromethane were used. An excess compound was added to 100 mL of solvent at 25 and 35 °C. The solution was agitated at 100 rpm for 24 h to achieve solid–liquid equilibrium. It was then left for 2 h without stirring to allow the sedimentation of the insolubilized particles. An aliquot was taken and analyzed with a spectrophotometer.

Data set [2] in a line: Particle size by scanning electron microscopy (length and width of 200 particles). The format is physicochemical. The following applies: SEM, GAS at 35 °C, 80 bar. The method, then:
Berberine was micronized using the antisolvent gas technique based on the studies of Pessoa et al. (2019) and Sakata et al. (2021). First, the solution was prepared at 1 mg/mL with the selected solvents and then added to the cell. The CO2 was introduced into the cell at a flow rate of 10 and 20 mL/min until the pressure reached 80 bar, with an operating temperature of 35 °C. The mixture was held at 80 bar for 10 min for homogenization. The solvent was removed by passing CO2 at constant pressure with open inlet and outlet valves. Once all the solvent had been removed, the reaction cell was depressurized, and the particles were collected.
Morphology and particle size were examined by scanning electron microscopy (JEOL JSM-6390LV.). Length and width measurements of 200 particles were obtained for each sample using Size Meter Software (version 1.1).

Setting [3] is: listed as Nonmicronized berberine.

As for `COc1ccc2cc3[n+](cc2c1OC)CCc1cc2c(cc1-3)OCO2` [Berberine, Berberine chloride], the solubility at 24 h in data set [1] (1-butanol, 25 °C) came out at 5.4 ± 0.578 µg/mL; in data set [1] (1-propanol, 25 °C) it was 3 ± 0.168 µg/mL; in data set [1] (1-propanol, 35 °C) it was 4.33 ± 0.082 µg/mL; in data set [1] (acetone, 25 °C) it was 0.16 ± 0.004 µg/mL; in data set [1] (acetone, 35 °C), 0.2 ± 0.007 µg/mL; in data set [1] (dichloromethane, 25 °C), 1.27 ± 0.032 µg/mL. Further, the solubility at 24 h in data set [1] (dichloromethane, 35 °C) came out at 3.47 ± 0.091 µg/mL; in data set [1] (ethanol, 25 °C) it was 2.82 ± 0.086 µg/mL; in data set [1] (ethanol, 35 °C) it was 4.57 ± 0.254 µg/mL; in data set [1] (methanol, 25 °C), 15.4 ± 1.61 µg/mL; in data set [1] (methanol, 35 °C), 35 ± 1.98 µg/mL. Moreover, the “particle size, length” value in data set [2] (setting [3]) is recorded as 13.24 μm; in data set [2] (listed as Raw), 13.24 ± 8.66 μm. Moreover, the results for the “particle size, width” value in data set [2] (setting [3]) and in data set [2] (listed as Raw) were 6.39 μm and 6.39 ± 5.39 μm, respectively.
